This is an account of results in a melting point compilation (Tetko et al.).

In turn, `O=C(O)c1c2c(cc([N+](=O)[O-])c1[N+](=O)[O-])OCCO2` showed a melting point of 210 to 212 °C.
The figure for `Cc1nc2ccccc2n1C(C(=O)O)C(C)C` (stereo unspecified) is 119 to 121 °C; for `Cc1c(C(=O)O)oc2ccc(Cl)cc12` it is 255 to 257 °C.
As for `Nc1nnc(-c2cc3c(s2)CCCC3)o1`, the melting point lay in the range of 266 to 268 °C.
The figure for `O=C(O)c1ccc(=O)n(-c2ccccc2)n1` is 208 to 210 °C.
In turn, `OC(CNCc1ccccc1)C(F)(F)F` (stereo unspecified) showed a melting point of 58 to 60 °C.
The figure for `CNc1n[nH]c(N)c1S(C)(=O)=O` is 171 to 173 °C.
Consider `O=C(O)c1ccc(OCCO)cc1`, for which the melting point is 177 to 179 °C.
With `CC(C)c1cccc(C(=O)O)n1`, the melting point lay within 63 to 65 °C.
`O=C(O)C1Cc2ccccc2CN1C(=O)CCl` (stereo unspecified): the melting point was in the range of 153 to 155 °C.
`CC(=O)Nc1cc(N)c(F)cc1F`: the melting point was in the range of 104 to 106 °C.
Consider `CC(C)(C)OC(=O)NC(C)(C(=O)O)C1CC1` (stereo unspecified), for which the melting point fell in the range of 140 to 142 °C.
The same measure for `O=C(O)c1cccc(-n2cnnn2)c1`: 168 to 170 °C; for `Cc1cc(C)c(C(N)=O)c(Cl)n1`: 172 to 174 °C.
In turn, `O=S(=O)(Nc1nccs1)c1ccccc1` came in with a melting point of 169 to 171 °C.
The figure for `CNc1nc(N)n[nH]1` is 158 to 160 °C; for `O=[N+]([O-])c1ccn(CCBr)n1` it is 50 to 52 °C.
The figure for `CC(=O)c1ccc(-n2cnc3ccccc32)cc1` is 135 to 137 °C; for `Cc1ccc(S(=O)(=O)N2CCOCC2)cc1C(=O)O` it is 148 to 152 °C.
The figure for `CCOC(=O)c1c[nH]c2cc(OC)cc(OC)c2c1=O` is 257 to 259 °C.
Regarding `O=C(O)Cc1cc(Cl)c2c(c1)OCCO2`, the melting point lay within 176 to 178 °C.
The figure for `NCc1ccn(-c2ccc(F)cc2)n1` is 56 to 58 °C.
The same measure for `Sc1ncc(-c2ccc(Cl)cc2)n1-c1ccccc1`: 283 to 285 °C; for `O=C(c1ccc(Cl)cc1)c1cccnc1`: 87 to 89 °C; for `COc1ccccc1C(=O)CC#N`: 71 to 75 °C.
The same measure for `Cc1cc(C)cc(-n2[nH]c(-c3ccco3)cc2=N)c1`: 125 to 127 °C.
The molecule `CC(C)(C)NC(=O)c1ccccc1N` returned a melting point of 124 to 125 °C.
The figure for `CC(C)(C#N)NC(=O)c1ccccc1` is 166 to 168 °C; for `CCC(=O)Nc1ccc(O)c(C(=O)O)c1` it is 217 to 219 °C; for `CCOCc1nnc(N)o1` it is 118 to 120 °C.
The same measure for `O=C(O)CC(=O)Nc1nccs1`: 181 to 183 °C; for `CCOC(=O)c1c(-c2ccc(C)o2)csc1N`: 93 to 95 °C; for `O=C(O)c1ccnc(C2CC2)c1`: 257 to 259 °C.
The same measure for `Cc1nc(-c2cccc(N)c2)n[nH]1`: 56 to 58 °C.
With `CN(C)C(C)(C(=O)O)c1ccc(Cl)cc1` (stereo unspecified), the melting point was 239 to 241 °C.
The figure for `COc1cc(C(=O)O)cc(Br)c1O` is 197 to 199 °C; for `Cc1noc(COCC(=O)O)n1` it is 76 to 78 °C; for `O=C(O)c1cccc(NS(=O)(=O)c2ccccc2)c1` it is 199 to 201 °C.
The figure for `O=C(O)c1c(F)ccc([N+](=O)[O-])c1F` is 92 to 96 °C; for `CCN(c1ccccc1)c1ccc(C(=O)O)cc1` it is 178 to 180 °C; for `Cc1cccc(NS(=O)(=O)c2ccc(C)c(N)c2)c1` it is 95 to 97 °C.
The same measure for `[N-]=[N+]=Nc1ccc(Cl)c(Cl)c1`: 32 to 34 °C; for `Nc1ncc(Cc2ccc(Cl)cc2)s1`: 127 to 129 °C.
As to `CCC(CC(=O)O)c1ccc(OC)cc1` (stereo unspecified), the melting point is 83 to 85 °C.
For `O=C(O)C=C(C1CC1)C1CC1`, the melting point was 134 to 136 °C.
With `CC1=C(C)C(=O)NC1=O`, the melting point was in the range of 113 to 115 °C.
The same measure for `NS(=O)(=O)Cc1ccccc1Cl`: 104 to 106 °C; for `CN(C)c1nccc(C=O)n1`: 50 to 52 °C.
In turn, `Cc1nn(-c2ncccn2)c(N)c1Br` returned a melting point of 159 to 161 °C.
As for `NC1CCN(c2ccccc2F)C1=O` (stereo unspecified), the melting point is 67 to 69 °C.
The same measure for `O=C(CCl)Nc1ccc2c(c1)CCC2`: 112 to 114 °C; for `COCc1cccc(C(=O)O)c1`: 64 to 66 °C.
For the molecule `Cc1ccc(NS(=O)(=O)c2ccc(N)cc2)cc1C`, the melting point fell in the range of 150 to 152 °C.
The same measure for `Cc1c(N)cc(C(=O)NC(C)c2ccccc2)cc1F` (stereo unspecified): 96 to 98 °C; for `O=C(O)c1cccc2cccc(-c3cccc4cccc(C(=O)O)c34)c12`: 284 to 286 °C; for `Cc1ccc(C)c(-n2cnc(O)n2)c1`: 166 to 168 °C.
The same measure for `CC(=O)N1CCN(c2ccc(C(=O)O)cc2[N+](=O)[O-])CC1`: 262 to 264 °C; for `CN(C)CCNC(=O)Cc1ccc(N)cc1`: 145 to 147 °C; for `Cc1ccc(NC(=O)C(=O)O)cc1`: 170 to 172 °C.
The figure for `OCCCc1nc2ncccn2n1` is 76 to 78 °C; for `Nc1ncncc1CO` it is 165 to 167 °C; for `CC(C)(Br)C(=O)Nc1ccccc1` it is 82 to 84 °C.
Consider `COc1cc2ccncc2cc1O`, for which the melting point was in the range of 159 to 161 °C.
For `CC(C)CC(=O)NCCc1ccc(S(=O)(=O)Cl)s1`, the melting point lay within 79 to 81 °C.
The figure for `Cc1nn(CCO)c(C(F)(F)F)c1C(=O)O` is 151 to 153 °C; for `Nc1nc(-c2ccccc2C(F)(F)F)cs1` it is 115 to 117 °C; for `CCC1(C)NC(=O)N(CCCN)C1=O` (stereo unspecified) it is 63 to 65 °C.
`O=C(O)Cn1c(SC(F)F)nc2ccccc21`: the melting point is 188 to 203 °C.
The same measure for `CS(=O)(=O)c1cc(C(=O)O)c(Cl)cc1Cl`: 210 to 212 °C; for `Cc1cc(C(=O)CC#N)c(C)n1CC(F)(F)F`: 150 to 152 °C; for `O=S(=O)(NC1CCCNC1)c1cccc(F)c1` (stereo unspecified): 137 to 139 °C.
`Oc1ccnc2cc(Cl)c(Br)cc12` showed a melting point of 369 to 371 °C.
Consider `c1ccc2[nH]c(C3CCCCN3)cc2c1` (stereo unspecified), for which the melting point lay within 151 to 153 °C.
On to `CCOc1ccc(OCCOc2ccc(C=CC(=O)O)cc2OCC)cc1`, for which the melting point lay in the range of 182 to 184 °C.
Molecule `O=C(c1c[nH]c(=O)[nH]1)N1CCNCC1` returned a melting point of 269 to 271 °C.
In turn, `Nc1ccc(Oc2ccccn2)cc1` yielded a melting point of 62 to 64 °C.
On to `COc1ccc(C)cc1NCCC(=O)O`, for which the melting point was 77 to 79 °C.
Molecule `NC(=O)c1ccc(OCCC(=O)O)cc1` yielded a melting point of 214 to 216 °C.
The figure for `NNc1oc(-c2ccccc2)nc1C(N)=O` is 173 to 175 °C.
The same measure for `O=C(O)c1cnc2sccn2c1=O`: 269 to 271 °C; for `Nc1ccc(CCN2CCSCC2)cc1`: 88 to 90 °C.
The same measure for `CCNC(=O)c1cccc(C)c1O`: 64 to 66 °C; for `O=Cc1ccc([N+](=O)[O-])cc1F`: 84 to 86 °C.
Turning to `Cc1ccc(Nc2cccc(C(=O)O)c2)nn1`, the melting point is 279 to 281 °C.
`CSc1ccc(CNc2ccc3[nH]c(C)nc3c2)cc1` returned a melting point of 172 to 174 °C.
The same measure for `Cc1cc(CO)c(C)n1-c1ccccc1`: 77 to 79 °C.

The term melting point denotes the temperature of the solid-liquid transition.
